Tests used:
[1] = tested on: MDA-MB-231 cells
[2] = tested on: PBMC; conditions: 12.5 µM

Row | SMILES | Average (percentage cell inhibition), Dmastoparan MDA-MB231 12.5uM [1] [%] | Average (percentage cell inhibition), Mastoparan PBMC [2] [%]
1 | CC[C@H](C)[C@H](NC(=O)[C@H](CCCCN)NC(=O)[C@H](CCCCN)NC(=O)[C@H](C)NC(=O)[C@H](CC(C)C)NC(=O)[C@H](C)NC(=O)[C@H](C)NC(=O)[C@H](CC(C)C)NC(=O)[C@H](C)NC(=O)[C@H](CCCCN)NC(=O)[C@H](CC(C)C)NC(=O)[C@H](CC(N)=O)NC(=O)[C@@H](N)CCC(=O)O)C(=O)N[C@@H](CC(C)C)C(N)=O [E1] | 25.5598 | 8.369
2 | CC[C@H](C)[C@H](N)C(=O)N[C@@H](CC(N)=O)C(=O)N[C@@H](CC(C)C)C(=O)N1CCC[C@H]1C(=O)N[C@@H](C)C(=O)N[C@@H](CC(C)C)C(=O)N[C@@H](C)C(=O)N[C@@H](C)C(=O)N[C@@H](CC(C)C)C(=O)N[C@@H](C)C(=O)N[C@@H](CCCCN)C(=O)N[C@@H](CCCCN)C(=O)N[C@H](C(=O)N[C@@H](CC(C)C)C(N)=O)[C@@H](C)CC [P4] | 10.9719 | -6.014
3 | CC[C@H](C)[C@H](N)C(=O)N[C@@H](CC(N)=O)C(=O)N[C@@H](CC(N)=O)C(=O)N[C@@H](CCCCN)C(=O)N[C@@H](C)C(=O)N[C@@H](CC(C)C)C(=O)N[C@@H](C)C(=O)N[C@@H](C)C(=O)N[C@@H](CC(C)C)C(=O)N[C@@H](C)C(=O)N[C@@H](CCCCN)C(=O)N[C@@H](CCCCN)C(=O)N[C@H](C(=O)N[C@@H](CC(C)C)C(N)=O)[C@@H](C)CC [N3] | 47.2847 | -0.8054
4 | CC[C@H](C)[C@H](N)C(=O)N[C@@H](CC(N)=O)C(=O)N[C@@H](CC(C)C)C(=O)N[C@@H](CCCCN)C(=O)N[C@@H](C)C(=O)N[C@@H](CC(C)C)C(=O)N[C@@H](C)C(=O)N[C@H](C(=O)N[C@@H](CC(C)C)C(=O)N[C@@H](C)C(=O)N[C@@H](CCCCN)C(=O)N[C@@H](CCCCN)C(=O)N[C@H](C(=O)N[C@@H](CC(C)C)C(N)=O)[C@@H](C)CC)[C@@H](C)CC [I8] | 40.0855 | 17.9616
5 | CC[C@H](C)[C@H](N)C(=O)N[C@@H](CC(N)=O)C(=O)N[C@@H](CC(C)C)C(=O)N[C@@H](CCCCN)C(=O)N[C@@H](C)C(=O)N[C@@H](CC(C)C)C(=O)N[C@@H](C)C(=O)N[C@@H](C)C(=O)N[C@@H](CC(C)C)C(=O)N[C@@H](C)C(=O)N[C@@H](CCCCN)C(=O)N[C@@H](CCCCN)C(=O)N[C@H](C(=O)N[C@@H](CCC(=O)O)C(N)=O)[C@@H](C)CC [E14] | 33.8434 | 2.998
6 | CC[C@H](C)[C@H](N)C(=O)N[C@@H](CC(N)=O)C(=O)N[C@@H](CC(C)C)C(=O)N[C@@H](Cc1ccc(O)cc1)C(=O)N[C@@H](C)C(=O)N[C@@H](CC(C)C)C(=O)N[C@@H](C)C(=O)N[C@@H](C)C(=O)N[C@@H](CC(C)C)C(=O)N[C@@H](C)C(=O)N[C@@H](CCCCN)C(=O)N[C@@H](CCCCN)C(=O)N[C@H](C(=O)N[C@@H](CC(C)C)C(N)=O)[C@@H](C)CC [Y4] | 34.4143 | 3.789
7 | CC[C@H](C)[C@H](N)C(=O)N[C@@H](CC(N)=O)C(=O)N[C@@H](CC(C)C)C(=O)N[C@@H](CCCCN)C(=O)N[C@H](C(=O)N[C@@H](CC(C)C)C(=O)N[C@@H](C)C(=O)N[C@@H](C)C(=O)N[C@@H](CC(C)C)C(=O)N[C@@H](C)C(=O)N[C@@H](CCCCN)C(=O)N[C@@H](CCCCN)C(=O)N[C@H](C(=O)N[C@@H](CC(C)C)C(N)=O)[C@@H](C)CC)[C@@H](C)CC [I5] | 71.3869 | 29.3206
8 | CC[C@H](C)[C@H](N)C(=O)N[C@@H](CC(N)=O)C(=O)N[C@@H](CC(C)C)C(=O)N[C@@H](CCCCN)C(=O)N[C@@H](C)C(=O)N[C@@H](CC(C)C)C(=O)N[C@@H](Cc1c[nH]cn1)C(=O)N[C@@H](C)C(=O)N[C@@H](CC(C)C)C(=O)N[C@@H](C)C(=O)N[C@@H](CCCCN)C(=O)N[C@@H](CCCCN)C(=O)N[C@H](C(=O)N[C@@H](CC(C)C)C(N)=O)[C@@H](C)CC [H7] | 37.3401 | 4.935
9 | CC[C@H](C)[C@H](N)C(=O)N[C@@H](CC(N)=O)C(=O)N[C@@H](CC(C)C)C(=O)N[C@@H](CCCCN)C(=O)N[C@@H](C)C(=O)N[C@@H](CC(C)C)C(=O)N[C@@H](CCCCN)C(=O)N[C@@H](C)C(=O)N[C@@H](CC(C)C)C(=O)N[C@@H](C)C(=O)N[C@@H](CCCCN)C(=O)N[C@@H](CCCCN)C(=O)N[C@H](C(=O)N[C@@H](CC(C)C)C(N)=O)[C@@H](C)CC [K7] | 38.2404 | 5.806
10 | CC[C@H](C)[C@H](N)C(=O)N[C@@H](CC(N)=O)C(=O)N[C@@H](CC(C)C)C(=O)N[C@@H](CCCCN)C(=O)N[C@@H](C)C(=O)N[C@@H](CC(C)C)C(=O)N[C@@H](C)C(=O)N[C@@H](C)C(=O)N[C@@H](CC(C)C)C(=O)N[C@@H](C)C(=O)N[C@@H](CCCCN)C(=O)N[C@@H](CCCCN)C(=O)N[C@@H](Cc1ccc(O)cc1)C(=O)N[C@@H](CC(C)C)C(N)=O [Y13] | 39.3488 | 16.5864
11 | CC[C@H](C)[C@H](N)C(=O)N[C@@H](CC(N)=O)C(=O)N[C@@H](CC(C)C)C(=O)N[C@@H](CCCCN)C(=O)N[C@@H](C)C(=O)N[C@@H](CC(C)C)C(=O)N[C@@H](C)C(=O)N[C@@H](CC(C)C)C(=O)N[C@@H](CC(C)C)C(=O)N[C@@H](C)C(=O)N[C@@H](CCCCN)C(=O)N[C@@H](CCCCN)C(=O)N[C@H](C(=O)N[C@@H](CC(C)C)C(N)=O)[C@@H](C)CC [L8] | 38.4504 | 16.9354
12 | CC[C@H](C)[C@H](N)C(=O)N[C@@H](CC(N)=O)C(=O)N[C@@H](CC(C)C)C(=O)N[C@@H](CCCCN)C(=O)N[C@@H](C)C(=O)N[C@@H](CC(C)C)C(=O)N[C@@H](C)C(=O)N[C@@H](C)C(=O)N[C@@H](CC(C)C)C(=O)N[C@@H](C)C(=O)N[C@@H](CCCCN)C(=O)N[C@@H](CO)C(=O)N[C@H](C(=O)N[C@@H](CC(C)C)C(N)=O)[C@@H](C)CC [S12] | 38.966 | 1.96
13 | CC[C@H](C)[C@H](N)C(=O)N[C@@H](CC(N)=O)C(=O)N[C@@H](CCC(N)=O)C(=O)N[C@@H](CCCCN)C(=O)N[C@@H](C)C(=O)N[C@@H](CC(C)C)C(=O)N[C@@H](C)C(=O)N[C@@H](C)C(=O)N[C@@H](CC(C)C)C(=O)N[C@@H](C)C(=O)N[C@@H](CCCCN)C(=O)N[C@@H](CCCCN)C(=O)N[C@H](C(=O)N[C@@H](CC(C)C)C(N)=O)[C@@H](C)CC [Q3] | 20.3646 | 10.4738
14 | CC[C@H](C)[C@H](N)C(=O)N[C@H](C(=O)N[C@@H](CC(C)C)C(=O)N[C@@H](CCCCN)C(=O)N[C@@H](C)C(=O)N[C@@H](CC(C)C)C(=O)N[C@@H](C)C(=O)N[C@@H](C)C(=O)N[C@@H](CC(C)C)C(=O)N[C@@H](C)C(=O)N[C@@H](CCCCN)C(=O)N[C@@H](CCCCN)C(=O)N[C@H](C(=O)N[C@@H](CC(C)C)C(N)=O)[C@@H](C)CC)[C@@H](C)CC [I2] | 82.9517 | 42.1735
15 | CC[C@H](C)[C@H](N)C(=O)N[C@@H](CC(N)=O)C(=O)N[C@@H](CC(C)C)C(=O)N[C@@H](CCCCN)C(=O)N[C@@H](C)C(=O)N[C@@H](CC(C)C)C(=O)N[C@@H](CO)C(=O)N[C@@H](C)C(=O)N[C@@H](CC(C)C)C(=O)N[C@@H](C)C(=O)N[C@@H](CCCCN)C(=O)N[C@@H](CCCCN)C(=O)N[C@H](C(=O)N[C@@H](CC(C)C)C(N)=O)[C@@H](C)CC [S7] | 34.1343 | -4.112
16 | CC[C@H](C)[C@H](N)C(=O)N[C@@H](CC(N)=O)C(=O)N[C@@H](CC(C)C)C(=O)N[C@@H](CCCCN)C(=O)N[C@@H](C)C(=O)N[C@@H](CC(C)C)C(=O)N[C@@H](C)C(=O)N[C@@H](Cc1c[nH]c2ccccc12)C(=O)N[C@@H](CC(C)C)C(=O)N[C@@H](C)C(=O)N[C@@H](CCCCN)C(=O)N[C@@H](CCCCN)C(=O)N[C@H](C(=O)N[C@@H](CC(C)C)C(N)=O)[C@@H](C)CC [W8] | 62.4515 | 51.7838
17 | CC[C@H](C)[C@H](N)C(=O)N[C@@H](CC(N)=O)C(=O)N[C@@H](CC(C)C)C(=O)N[C@@H](CCCCN)C(=O)N[C@@H](C)C(=O)N[C@@H](CCC(=O)O)C(=O)N[C@@H](C)C(=O)N[C@@H](C)C(=O)N[C@@H](CC(C)C)C(=O)N[C@@H](C)C(=O)N[C@@H](CCCCN)C(=O)N[C@@H](CCCCN)C(=O)N[C@H](C(=O)N[C@@H](CC(C)C)C(N)=O)[C@@H](C)CC [E6] | 39.2363 | 3.211
18 | CC[C@H](C)[C@H](N)C(=O)N[C@@H](CC(N)=O)C(=O)N[C@@H](CC(C)C)C(=O)N[C@@H](CCCCN)C(=O)N[C@@H](C)C(=O)N[C@H](C(=O)N[C@@H](C)C(=O)N[C@@H](C)C(=O)N[C@@H](CC(C)C)C(=O)N[C@@H](C)C(=O)N[C@@H](CCCCN)C(=O)N[C@@H](CCCCN)C(=O)N[C@H](C(=O)N[C@@H](CC(C)C)C(N)=O)[C@@H](C)CC)[C@@H](C)O [T6] | 9.306 | 0.8912
19 | CC[C@H](C)[C@H](N)C(=O)N[C@@H](CC(N)=O)C(=O)N[C@@H](CC(C)C)C(=O)N[C@@H](CCCCN)C(=O)N[C@@H](C)C(=O)N[C@@H](CC(C)C)C(=O)N[C@@H](C)C(=O)N[C@@H](C)C(=O)N[C@@H](CC(C)C)C(=O)N[C@@H](C)C(=O)N[C@@H](CCCCN)C(=O)N[C@@H](CC(C)C)C(=O)N[C@H](C(=O)N[C@@H](CC(C)C)C(N)=O)[C@@H](C)CC [L12] | 85.0992 | 80.1821

Reference: paper PMC12748989 (Nature Communications, 2025)
